The term IC50 denotes the concentration needed to halve the response being measured.

Holding throughout (assay type): biochemical
In experiment [1] the target is T1, IDH1^R132H homodimer enzyme (Homo sapiens, UniProt O75874, R132H).
T1 construct: purchased not specified
Briefly: NADPH depletion assay, IDH1 R132H. The procedure, abridged: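 IDH1 R132H enzyme (8 nM as diluted) in Tris-HCl pH 7.6 with 10 mM MgCl2, 0.001% Triton X-100 and 4 mM β-mercaptoethanol is preincubated 15 min at RT with compound. Substrate mix (12 uM NADPH, 3.4 mM α-ketoglutarate) is added for 60 min; remaining NAD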

Experiment [2] concerns the target T2, IDH1^R132C (Homo sapiens, UniProt O75874, R132C).
T2 construct: purchased not specified
Briefly: NADPH depletion assay, IDH1 R132C. An outline of the steps:
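Fluorescence readout (Ex544/Em590) of NADPH left after diaphorase/resazurin addition. Alpha-ketoglutarate 0.14 mM final, enzyme 2 nM final; compound preincubation 15 min, then 60 min reaction, both at room temperature, pH 7.6 Tris buffer.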

In experiment [3] the target is T3, IDH2^R172K (Homo sapiens, UniProt P48735, R172K).
T3 construct: purchased not specified
T3 sequence (P48735 40-452 R172K): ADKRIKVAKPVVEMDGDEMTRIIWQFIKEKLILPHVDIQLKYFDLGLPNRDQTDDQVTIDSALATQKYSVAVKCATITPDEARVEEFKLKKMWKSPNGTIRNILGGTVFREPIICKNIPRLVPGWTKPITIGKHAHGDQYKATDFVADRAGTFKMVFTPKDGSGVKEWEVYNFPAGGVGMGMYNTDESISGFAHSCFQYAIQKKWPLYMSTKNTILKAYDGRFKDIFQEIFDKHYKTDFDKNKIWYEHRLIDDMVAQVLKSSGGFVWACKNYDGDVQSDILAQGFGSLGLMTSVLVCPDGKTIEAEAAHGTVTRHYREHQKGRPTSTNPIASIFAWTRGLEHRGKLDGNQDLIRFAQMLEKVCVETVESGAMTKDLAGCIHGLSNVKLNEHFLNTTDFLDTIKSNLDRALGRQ
Briefly: NADPH depletion assay, IDH2 R172K. As for the experimental part: IDH mutated enzyme activity converting alpha-ketoglutarate to 2-hydroxyglutaric acid is measured using a NADPH depletion assay. In the assay the remaining cofactor is measured at the end of the reaction with the addition of a catalytic excess of diaphorase and resazurin, to generate a fluorescent signal in proportion to the amount of NADPH remaining. IDH1 WT enzyme as well as mutated isoforms IDH1^R132H, IDH1^R132C, and IDH^2R172K enzymes are commercially available proteins (see e.g. Sino Biological, Abcam, Active Motif or Creative BioMart).
IDH1^R132H homodimer enzyme are diluted to 8 nM, in 10 μL of Assay Buffer (150 mM NaCl, 50 mM Tris-HCl pH 7.6, 10 mM MgCl2, 0.001% Triton X-100, 4 mM β-mercaptoethanol); 0.2 uL of test compound, previously serially diluted 1 to 3, >10 experimental points from 1 mM in DMSO, is added and the mixture is incubated for 15 minutes at room temperature. The reaction is started with the addition of 10 μL of Substrate Mix (12 uM NADPH, 3.4 mM alpha-ketoglutarate in Assay Buffer) and the mixture is incubated for 60 minutes at room temperature. The reaction is terminated with the addition of 5 μl of Detection Buffer (100 μg/mL diaphorase, 30 μM resazurin, in IX Assay Buffer), and is incubated for 15 minute before reading on a ViewLux as platereader at Ex544/Em590.
Compounds are assayed for their activity against IDH2^R172K following the same assay as above with the following modifications: IDH2^R172K and alpha-ketoglutarate final concentrations in the Assay Buffer is 16 nM and 0.55 mM, respectively.

T1 sequence (O75874 whole entry R132H): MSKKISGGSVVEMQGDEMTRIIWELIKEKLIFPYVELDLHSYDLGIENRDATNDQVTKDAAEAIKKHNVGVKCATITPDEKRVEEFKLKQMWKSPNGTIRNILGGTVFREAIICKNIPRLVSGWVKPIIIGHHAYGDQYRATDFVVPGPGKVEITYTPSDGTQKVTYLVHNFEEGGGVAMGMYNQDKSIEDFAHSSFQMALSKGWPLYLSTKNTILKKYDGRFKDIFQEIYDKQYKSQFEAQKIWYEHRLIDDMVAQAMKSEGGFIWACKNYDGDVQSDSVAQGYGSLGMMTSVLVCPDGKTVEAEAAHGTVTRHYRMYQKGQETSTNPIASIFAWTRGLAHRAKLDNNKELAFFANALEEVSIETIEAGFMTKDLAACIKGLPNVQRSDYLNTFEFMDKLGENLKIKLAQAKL
T2 sequence (O75874 whole entry R132C): as the sequence (O75874 whole entry R132H) above, with H132C counted along it

Regarding `C=CC(=O)N1CCN(Cc2ccc([C@H](C)Nc3ncc4ccc(=O)n([C@@H](C)CF)c4n3)cc2)CC1` [cpd 198, 2-{[(1S)-1-{4-[(4-acryloylpiperazin-1-yl)methyl]phenyl}ethyl]amino}-8-[(2S)-1-fluoropropan-2-yl]pyrido[2,3-d]pyrimidin-7(8H)-one], the IC50 in experiment [1] was 0.132 µM; in experiment [2] it was 0.401 µM; in experiment [3], 0.248 µM.

As for `CC(C)Cn1c(=O)ccc2cnc(N[C@@H](C)c3ccc(CN4CCC(F)(F)CC4)cc3)nc21` [cpd 95, 2-{[(1S)-1-{4-[(4,4-difluoropiperidin-1-yl)methyl]phenyl}ethyl]amino}-8-(2-methylpropyl)pyrido[2,3-d]pyrimidin-7(8H)-one], the half-inhibitory concentration (IC50) in experiment [1] stood at 0.425 µM; in experiment [2] it was 0.162 µM; in experiment [3] it was 5.16 µM.

With `CC(Nc1ncc2ccc(=O)n(Cc3c(F)cccc3F)c2n1)c1ccc(CN2CCC(F)(F)CC2)cc1` (centres unmarked) [cpd 98, 8-(2,6-difluorobenzyl)-2-[(1-{4-[(4,4-difluoropiperidin-1-yl)methyl]phenyl}ethyl)amino]pyrido[2,3-d]pyrimidin-7(8H)-one], the results for the IC50 in experiment [1], in experiment [2] and in experiment [3] were 0.366 µM, 0.217 µM and 5.34 µM, respectively.

In the case of `C[C@H](Nc1ncc2ccc(=O)n(Cc3c(F)cccc3F)c2n1)c1ccc(Cl)cc1` [cpd 31, 2-{[(1S)-1-(4-chlorophenyl)ethyl]amino}-8-(2,6-difluorobenzyl)pyrido[2,3-d]pyrimidin-7(8H)-one], the figures for the IC50 in experiment [1], in experiment [2] and in experiment [3] were 0.323 µM, 0.147 µM and 2.2 µM, respectively.

In the case of `CC(C)[C@H](C)n1c(=O)ccc2cnc(N[C@@H](C)c3ccc(-c4ccccc4C#N)cc3)nc21` [cpd 165, 4′-[(1S)-1-({8-[(2S)-3-methylbutan-2-yl]-7-oxo-7,8-dihydropyrido[2,3-d]pyrimidin-2-yl}amino)ethyl]biphenyl-2-carbonitrile], the IC50 in experiment [1] turned out to be 0.157 µM; in experiment [2] it was 0.085 µM; in experiment [3], 5.66 µM.

Regarding `COC(=O)c1ccc([C@H](C)Nc2ncc3ccc(=O)n(CC(C)(C)C)c3n2)cc1` [cpd 11, methyl 4-[(1S)-1-{[8-(2,2-dimethylpropyl)-7-oxo-pyrido[2,3-d]pyrimidin-2-yl]amino}ethyl]benzoate], the IC50 in experiment [1] stood at 0.362 µM; in experiment [2], 0.181 µM; in experiment [3] it was 6.1 µM.

Regarding `C[C@H](Nc1ncc2ccc(=O)n(CC(C)(C)CO)c2n1)c1ccc(Br)cc1` [cpd 35, 2-{[(1S)-1-(4-bromophenyl)ethyl]amino}-8-(3-hydroxy-2,2-dimethylpropyl)pyrido[2,3-d]pyrimidin-7(8H)-one], the IC50 in experiment [1] turned out to be 0.211 µM; in experiment [3], 5.05 µM.

In the case of `C[C@H](Nc1ncc2ccc(=O)n(CC(C)(C)C)c2n1)c1ccc(-c2ccncc2)cc1` [cpd 131, 8-(2,2-dimethylpropyl)-2-({(1S)-1-[4-(pyridin-4-yl)phenyl]ethyl}amino)pyrido[2,3-d]pyrimidin-7(8H)-one], the IC50 in experiment [1] was determined as 0.284 µM; in experiment [2], 0.17 µM.

`Cc1nc(N[C@@H](C)c2ccc(CN3CCC(F)(F)CC3)cc2)nc2c1ccc(=O)n2CC(C)C` [cpd 118]: the IC50 in experiment [1] is 1.3 µM; in experiment [2], 0.923 µM.

For `C[C@H](Nc1ncc2ccc(=O)n(CC(C)(C)C)c2n1)c1ccc(C(=O)NC2CCC(F)(F)CC2)cc1` [cpd 79, N-(4,4-difluorocyclohexyl)-4-[(1S)-1-{[8-(2,2-dimethylpropyl)-7-oxo-pyrido[2,3-d]pyrimidin-2-yl]amino}ethyl]benzamide], the IC50 came out at 0.529 µM in experiment [1] and 0.357 µM in experiment [2].

Take `C=CC(=O)N1CCN(Cc2ccc([C@H](C)Nc3nc(NC)c4ccc(=O)n(CC(C)(C)C)c4n3)cc2)CC1` [cpd 202, 2-{[(1S)-1-{4-[(4-acryloylpiperazin-1-yl)methyl]phenyl}ethyl]amino}-8-(2,2-dimethylpropyl)-4-(methylamino) pyrido[2,3-d]pyrimidin-7(8H)-one]: the IC50 was 0.666 µM in experiment [1] and 0.104 µM in experiment [2].

With `COC(=O)c1ccc([C@H](C)Nc2ncc3ccc(=O)n(C(C)C)c3n2)cc1` [cpd 9, methyl 4-[(1S)-1-{[7-oxo-8-(propan-2-yl)-pyrido[2,3-d]pyrimidin-2-yl]amino}ethyl]benzoate], the IC50 in experiment [1] turned out to be 1.53 µM; in experiment [2], 0.604 µM.

As to `CCCn1c(=O)ccc2cnc(N[C@@H](C)c3ccc(CN4CCCCCC4)cc3)nc21` [cpd 102, 2-({(1S)-1-[4-(azepan-1-ylmethyl)phenyl]ethyl}amino)-8-propylpyrido[2,3-d]pyrimidin-7(8H)-one], the IC50 is 4.32 µM in experiment [1] and 2.8 µM in experiment [2].

On to `C[C@H](Nc1ncc2ccc(=O)n(CC(C)(C)C)c2n1)c1ccc(CO)c(F)c1` [cpd 90, 8-(2,2-dimethylpropyl)-2-({(1S)-1-[3-fluoro-4-(hydroxymethyl)phenyl]ethyl}amino)pyrido[2,3-d]pyrimidin-7(8H)-one], for which the IC50 in experiment [1] worked out at 0.697 µM; in experiment [2], 0.391 µM.

Take `C[C@@H]1CN(Cc2ccc([C@H](C)Nc3ncc4ccc(=O)n([C@@H](C)C5CC5)c4n3)cc2F)C[C@H](C)O1` [cpd 171, 8-[(1S)-1-cyclopropylethyl]-2-{[(1S)-1-(4-{[(2R,6S)-2,6-dimethylmorpholin-4-yl]methyl}-3-fluorophenyl)ethyl]amino}pyrido[2,3-d]pyrimidin-7(8H)-one]: the IC50 in experiment [1] was 0.169 µM; in experiment [2] it was 0.055 µM.

Regarding `CCOC(=O)C(C)n1c(=O)ccc2cnc(N[C@@H](C)c3ccc(CN4CCCC(F)(F)C4)cc3)nc21` (stereo partly drawn) [cpd 63, ethyl 2-[2-{[(1S)-1-{4-[(3,3-difluoropiperidin-1-yl)methyl]phenyl}ethyl]amino}-7-oxopyrido[2,3-d]pyrimidin-8(7H)-yl]propanoate], the IC50 in experiment [1] stood at 0.29 µM; in experiment [2], 0.123 µM.

For the compound `CC(C)C(=O)N1CCN(Cc2ccc([C@H](C)Nc3ncc4ccc(=O)n(CC(C)(C)C)c4n3)cc2)CC1` [cpd 157, 8-(2,2-dimethylpropyl)-2-{[(1S)-1-(4-{[4-(2-methylpropanoyl)piperazin-1-yl]methyl}phenyl)ethyl]amino}-pyrido [2,3-d]pyrimidin-7(8H)-one], the figures for the 50% inhibitory concentration (IC50) in experiment [1] and in experiment [2] were 0.162 µM and 0.051 µM, respectively.

In the case of `C[C@H](Nc1ncc2ccc(=O)n(Cc3c(F)cccc3F)c2n1)c1ccc(CO)cc1` [cpd 92, 8-(2,6-difluorobenzyl)-2-({(1S)-1-[4-(hydroxymethyl)phenyl]ethyl}amino)pyrido[2,3-d]pyrimidin-7(8H)-one], the IC50 stood at 0.713 µM in experiment [1] and 0.715 µM in experiment [2].

For `C[C@H](Nc1ncc2ccc(=O)n(CC(C(F)(F)F)C(F)(F)F)c2n1)c1ccc(CN2CCC(F)(F)CC2)cc1` [cpd 108, 2-{[(1S)-1-{4-[(4,4-difluoropiperidin-1-yl)methyl]phenyl)ethyl]amino)-8-[3,3,3-trifluoro-2-(trifluoromethyl)propyl]pyrido[2,3-d]pyrimidin-7(8H)-one], the values for the IC50 in experiment [1] and in experiment [2] were 0.459 µM and 0.307 µM, respectively.

For the compound `C[C@H](Nc1ncc2ccc(=O)n(CC(C)(C)C(N)=O)c2n1)c1ccc2ccccc2c1` [cpd 122, 2,2-dimethyl-3-[2-{[(1S)-1-(naphthalen-2-yl)ethyl]amino}-7-oxopyrido[2,3-d]pyrimidin-8(7H)-yl]propanamide], the figures for the IC50 in experiment [1] and in experiment [2] were 0.717 µM and 0.386 µM, respectively.

In the case of `CC(C)(C)Cn1c(=O)ccc2cnc(NC3(c4ccccc4)CC3)nc21` [cpd 42, 8-(2,2-dimethylpropyl)-2-[(1-phenylcyclopropyl)amino]pyrido[2,3-d]pyrimidin-7(8H)-one], the IC50 in experiment [1] was 1.38 µM; in experiment [2] it was 0.951 µM.

In the case of `COC(=O)c1ccc([C@H](C)Nc2ncc3ccc(=O)n(Cc4cc(F)cc(F)c4)c3n2)cc1` [cpd 7, methyl 4-[(1S)-1-{[8-(3,5-difluorobenzyl)-7-oxo-pyrido[2,3-d]pyrimidin-2-yl]amino}ethyl]benzoate], the IC50 in experiment [1] was determined as 2.96 µM; in experiment [2], 1.41 µM.
